Assay results reported in patent US7078385B2, “Methods of inhibiting angiogenesis with fragments and homologs of troponin subunit I” (Boston Life Sciences, Inc., priority 1996, dated 2006).
No end group written: not given here.

Experiments:
[1] = tested on: bFGF-stimulated capillary EC; test: Inhibition of bFGF-stimulated capillary EC proliferation by fragments of troponin I (Example 13, Table 2); format: cell-based, bovine; details: for IC50: read-out: Approx. IC50
Protocol: On day one, 5,000 bovine capillary endothelial cells in DMEM/10% CS/1% GPS are plated onto each well of a 96-well pregelatinized tissue culture plate. On day two, the cell media is changed to DMEM, 2% CS, 1% GPS, 0.5% BSA (complete medium), supplemented with 10 μl of 1 mg/ml “cold” thymidine per 50 ml of medium. On day three, test samples in complete medium are added in duplicate. Additionally, […] (bFGF) is added to each well except for the appropriate controls, to a final concentration of 0.2 ng/well. On day four, 5 μl of 1:13 diluted ^3H-Thymidine stock is added to each well and the plate is incubated for 5–6 hours. Following incubation, the medium is aspirated, and the remainder is rinsed once with PBS, then twice for 5 minutes each with methanol followed by two rinses each for 10 minutes with 5% TCA. The cells are then rinsed with water three times, dried to the plate, and 100 μl of 0.3 N NaOH is added to each well. The contents of the well are then transferred to the scintillation counter vials and 3 mls of Ecolume added to each vial. Samples are then counted on the scintillation counter.
Recombinant peptides corresponding to fragments of rabbit (rb) TnI (SEQ ID NO:10) (FIG. 12) were tested for ability to inhibit bFGF-stimulated capillary EC as described above in Section 6, Examples 2 and 8. The rbTnI fragments (SEQ ID NOS:11–15) were prepared according to Jha et al., 1996, Biochemistry 35(34):11026–11035.

[2] = tested on: embryonic neovascularization of the chick chorioallantoic membrane; details: cited from earlier work; for Lowest reported dose effective as combination in the CAM assay: combined with hydrocortisone (60 μg)
[3] = tested on: bovine capillary endothelial cells (BCE), bFGF-stimulated; test: bFGF-stimulated capillary endothelial cell proliferation, colorimetric acid phosphatase assay (Example 3); format: cell-based
Protocol: A quick and sensitive screen for inhibition of EC proliferation in response to treatment with a troponin subunit, homolog, or derivative of the invention involves incubating the cells in the presence of varying concentrations of the inhibitor and determining the number of endothelial cells in culture based on the colorimetric determination of cellular acid phosphatase activity, described by Connolly, et al., 1986, J. Anal. Biochem. 152:136–140.
The effect of troponin on the proliferation of capillary endothelial cells (EC) was measured in an assay which measures the ability of this protein to interfere with stimulation of endothelial cell proliferation by a known angiogenesis factor (bFGF).
Capillary endothelial cells and Balb/c 3T3 cells were separately plated (2×10^3/0.2 ml) onto gelatin-coated 96-well tissue culture dishes on day 1. On day 2, cells were refed with Dulbecco's modified Eagle's medium (Gibco) with 5% calf serum (Hyclone) (DMEM/5) and bFGF (10 ng/ml) (FGF Co.) and increasing concentrations of one or more troponin subunits. […] Wells containing phosphate buffered saline (PBS) (Gibco) alone and PBS+bFGF were included as controls. On day 5, media was removed and cells were washed with PBS and lysed in 100 μl of buffer containing 0.1 M sodium acetate (pH 5.5), 0.1% Triton X-100™ and 100 mM p-nitrophenyl phosphate (Sigma 104 phosphatase substrate). After incubation for 2 hours at 37° C., the reaction was stopped with the addition of 10 μl of 1 N NAOH. Color development was determined at 405 nm using a rapid microplate reader (Bio-Tek).
Percent inhibition was determined by comparing the cell number of wells exposed to stimulus with those exposed to stimulus and troponin subunits.

Molecule: 122–181: recombinant rabbit TnI fragment, C′ region, aa 122–181 (LKALLGSKHKVCMDLRANLKQVKKEDTEKERDLRDVGDWRKNIEEKSGMEGRKKMFESES; listed as Oryctolagus cuniculus)
- Approx. IC50 μg/well [1]: >0.3 μg/well
- % I (Percent Inhibition) of EC proliferation ([1]; 0.01 μg/well): −1%
- % I (Percent Inhibition) of EC proliferation ([1]; 0.025 μg/well): −6%
- % I (Percent Inhibition) of EC proliferation ([1]; 0.1 μg/well): 20%
- % I (Percent Inhibition) of EC proliferation ([1]; 0.3 μg/well): 23%
- IC50 [1]: > 0.2 µM

Molecule: B-cyclodextrin tetradecasulfate
- Lowest reported dose effective as combination in the CAM assay [2]: 14 µg

Molecule: CMDLRANL [134–141]
- Approx. IC50 μg/well [1]: 150 μg/well

Molecule: DAMLKALL [120–127]
- Approx. IC50 μg/well [1]: >>50 μg/well

Molecule: DLRANLKQ [136–143]
- Approx. IC50 μg/well [1]: >>50 μg/well

Molecule: DLRGKFKRPPLRRVRMSADA [102–121]
- Approx. IC50 μg/well [1]: >>20 μg/well

Molecule: EDMNQKLFDLRGKFKRPPLR [94–113]
- Approx. IC50 μg/well [1]: >>20 μg/well

Molecule: GSKHKVCM [128–135]
- Approx. IC50 μg/well [1]: 150 μg/well

Molecule: KALLGSKH [124–131]
- Approx. IC50 μg/well [1]: >>50 μg/well

Molecule: KFKRPPLRRVRMSADAMLKA [102–125]
- Approx. IC50 μg/well [1]: >>20 μg/well

Molecule: KHKVCMDL [130–137]
- Approx. IC50 μg/well [1]: 50 μg/well

Molecule: KLFDLRGKFKRPPLRRV [98–114]
- Approx. IC50 μg/well [1]: >>40 μg/well

Molecule: KVCMDLRA [132–139]
- Approx. IC50 μg/well [1]: 75 μg/well

Molecule: LLGSKHKV [126–133]
- Approx. IC50 μg/well [1]: >>50 μg/well

Molecule: MLKALLGS [122–129]
- Approx. IC50 μg/well [1]: >>50 μg/well

Molecule: PPLRRVRMSADAMLKALLGS [110–129]
- Approx. IC50 μg/well [1]: >>20 μg/well

Molecule: QKLFDLRGKFKRPPLRRVRM [98–117]
- Approx. IC50 μg/well [1]: >>20 μg/well

Molecule: RMSADAML [116–123]
- Approx. IC50 μg/well [1]: >>50 μg/well

Molecule: RVRMSADAMLKALLGSKHKV [114–133]
- Approx. IC50 μg/well [1]: >>20 μg/well

Molecule: SADAMLKA [118–125]
- Approx. IC50 μg/well [1]: >>50 μg/well

Molecule: SADAMLKALLGSKHKVCMDL [118–137]
- Approx. IC50 μg/well [1]: 40 μg/well

Molecule: Troponin C: troponin subunit C, calcium binding polypeptide of the troponin complex; human fast twitch sequence SEQ ID NO:1
- IC50 [3]: 0.278 µM
- Percent inhibition of BCE proliferation ([3]; 280 nM): 54%
- Percent inhibition of BCE proliferation ([3]; 1.4 μM): 86%
- Percent inhibition of BCE proliferation ([3]; 2.8 μM): 83%
- Percent inhibition of BCE proliferation ([3]; 5.6 μM (20 μg/well)): 100%

Molecule: Troponin T: troponin subunit T, tropomyosin binding polypeptide of the troponin complex; SEQ ID NO:3
- IC50 [3]: 2.14 µM
- Percent inhibition of BCE proliferation ([3]; 1.6 μM): 23%
- Percent inhibition of BCE proliferation ([3]; 3.3 μM): 62%
- Inhibition of bFGF-stimulated EC proliferation (in words) ([3]; 1 and 5 μg/well): not

Molecule: heparin
- Lowest reported dose effective as combination in the CAM assay [2]: 50 µg

Molecule: protamine
- Reported dose of angiogenesis inhibitor tested alone in the CAM assay [2]: 50 µg

B1: platelet factor IV: previously described angiogenesis inhibitor (Taylor et al. 1982) (protein, UniProt P02776 32-101, looked up)
Platelet factor 4: EAEEDGDLQCLCVKTTSQVRPRHITSLEVIKAGPHCPTAQLIATLKNGRKICLDLQAPLYKKIIKKLLES
- Reported dose of angiogenesis inhibitor tested alone in the CAM assay [2]: 10 µg

B2: 1–94: recombinant rabbit TnI fragment, amino-terminal (N′) region, aa 1–94 (protein, listed as Oryctolagus cuniculus)
chain: GDEEKRNRAITARRQHLKSVMLQIAATELEKEEGRREAEKQNYLAEHCPPLSLPGSMAEVQELCKQLHAKIDAAEEEKYDMEIKVQKSSKELED
- Approx. IC50 μg/well [1]: >0.3 μg/well
- % I (Percent Inhibition) of EC proliferation ([1]; 0.01 μg/well): −12%
- % I (Percent Inhibition) of EC proliferation ([1]; 0.025 μg/well): 6%
- % I (Percent Inhibition) of EC proliferation ([1]; 0.1 μg/well): 31%
- % I (Percent Inhibition) of EC proliferation ([1]; 0.3 μg/well): 28%
- IC50 [1]: > 0.1 µM

B3: 96–181: recombinant rabbit TnI fragment, carboxy terminus (C′) and I′ region, aa 96–181 (protein, listed as Oryctolagus cuniculus)
chain: NQKLFDLRGKFKRPPLRRVRMSADAMLKALLGSKHKVCMDLRANLKQVKKEDTEKERDLRDVGDWRKNIEEKSGMEGRKKMFESES
- % I (Percent Inhibition) of EC proliferation ([1]; 0.01 μg/well): 25%
- % I (Percent Inhibition) of EC proliferation ([1]; 0.025 μg/well): 28%
- % I (Percent Inhibition) of EC proliferation ([1]; 0.1 μg/well): 54%
- % I (Percent Inhibition) of EC proliferation ([1]; 0.3 μg/well): 48%

B4: 1–120: recombinant rabbit TnI fragment, N′ and inhibitory (I′) region, aa 1–120 (protein, listed as Oryctolagus cuniculus)
chain: GDEEKRNRAITARRQHLKSVMLQIAATELEKEEGRREAEKQNYLAEHCPPLSLPGSMAEVQELCKQLHAKIDAAEEEKYDMEIKVQKSSKELEDMNQKLFDLRGKFKRPPLRRVRMSADA
- Approx. IC50 μg/well [1]: >>0.3 μg/well
- % I (Percent Inhibition) of EC proliferation ([1]; 0.01 μg/well): 6%
- % I (Percent Inhibition) of EC proliferation ([1]; 0.025 μg/well): 0%
- % I (Percent Inhibition) of EC proliferation ([1]; 0.1 μg/well): 12%
- % I (Percent Inhibition) of EC proliferation ([1]; 0.3 μg/well): 17%
- IC50 [1]: > 0.1 µM

B5: Troponin I: troponin subunit I, inhibitory polypeptide of the troponin complex; human fast twitch sequence SEQ ID NO:2 (protein, listed as Homo sapiens)
chain: MGDEEKRNRAITARRQHLKSVMLQIAATELEKEESRREAEKQNYLAEHCPPLHIPGSMSEVQELCKQLHAKIDAAEEEKYDMEVRVQKTSKELEDMNQKLFDLRGKFKRPPLRRVRMSADAMLKALLGSKHKVCMDLRANLKQVKKEDTEKERDLRDVGDWRKNIEEKSGMEGRKKMFESES
- IC50 [3]: 1.14 µM
- Percent inhibition of BCE proliferation ([3]; 240 nM): 33%
- Percent inhibition of BCE proliferation ([3]; 1.2 μM (5 μg/well), 1.2 µM): 46%
- Percent inhibition of BCE proliferation ([3]; 1.2 μM (5 μg/well), listed as full-length TnI, 1.2 µM): approximately 46%
- Inhibition of bFGF-stimulated BCE proliferation (in words) ([3]; 10 μg/well): inhibition was not observed
